What follows are compounds tested on IFNγ-Induced NO Production in RAW 264.7 cells (assay: Nitric Oxide Suppression Assay (suppression of IFNγ-induced NO production)). Settings: RAW264.7; RAW 264.7 mouse macrophage cells, 20 ng/mL interferon gamma, Griess detection; single curve fit to mean data of n=2-3.
Format: cell-based
Procedure: RAW 264.7, a mouse macrophage cell line, was obtained from American Type Culture Collection (Manassas Va.) and maintained in the log phase of growth in Dulbecco's Modified Eagle's Medium (DMEM), 10% heat inactivated fetal calf serum and 100 units/mL antibiotic-antimycotic (AA). Cells were cultured and maintained in a humidified incubator at 37° C. under 5% CO2 and 95% air. Cells were sub-cultured every 3 days by scraping and were not used beyond passage 20. All cell culture supplies were obtained from Life Technologies (Grand Island, N.Y.).
RAW 264.7 cells were plated 1 day in advance of experiment at a concentration of 80,000 cells/well onto CellBIND® 96 well plates (Corning, N.Y.) in a total volume of 100 μL. The next day, pre-treat cells with compounds (from 3 μM to 0.3 nM serially diluted in a 10 point curve) from a 10× stock by adding 10 μL per well in complete DMEM media containing 10% fetal calf serum. The plates were centrifuged for 3 minutes at 400×g at room temperature followed by 2 hour incubation at 37° C. The cells were then incubated overnight at 37° C. with 10 μL of the insult, interferon gamma (R&D Systems, Minneapolis, Minn.), from a 10× stock for a final concentration of 20 ng/mL. The plates were centrifuged for 3 minutes at 400×g at room temperature followed by 18 hour incubation at 37° C. The following day, transfer 50 μL cell culture supernatant from each well into a clear bottom 96 well plate and follow the instructions from Promega's Griess Detection Kit #G2930 (Madison, Wis.) which involves the addition of 50 μL of the provided sulfanilamide solution for a 5-10 minute incubation at room temperature. Next add 50 μL of the provided N-1-napthylethylenediamine dihydrochloride (NED) solution for a 5-10 minute incubation at room temperature and protected from light. If any air bubbles were introduced into the well, the plates need to be centrifuged for 5 minutes at 400×g at room temperature to avoid interference with absorbance readings. The plates were read for absorbance within 30 minutes with a filter between 520 nm and 550 nm.
For the ability of compounds to suppress the increase in nitric oxide release, the percent maximal intensity of nitric oxide detected in each well was normalized to that induced by the peak value for 20 ng/mL of interferon gamma alone and plotted against the compound concentration to calculate IC50 values and to control for plate-to-plate variability. Concentration-response data were analyzed using GraphPad Prism (San Diego, Calif.); the IC50 values were derived from a single curve fit to the mean data of n=2-3, in duplicates.
All compounds were dissolved in dimethyl sulfoxide at 10 mM stock solutions and tested at a concentration that the dimethyl sulfoxide levels never exceeded 1%.
COC(=O)[C@@H]1CCCN1C(=O)[C@@]1(C)CC[C@]2(C)CC[C@@]3(C)[C@]4(C)CC[C@H]5C(C)(C)C(=O)C(C#N)=C[C@]5(C)C4=CC(=O)[C@]3(O)[C@@H]2C1 [Example 24, methyl 1-{[(2S,4aS,6aS,6bR,8aR,12aS,14aS,14bR)-11-cyano-14a-hydroxy-2,4a,6a,6b,9,9,12a-heptamethyl-10,14-dioxo-1,2,3,4,4a,5,6,6a,6b,7,8,8a,9,10,12a,14,14a,14b-octadecahydropicen-2-yl]carbonyl}prolinate] showed an IC50 of 0.0166 µM.
CC(O)CNC(=O)[C@@]1(C)CC[C@]2(C)CC[C@@]3(C)[C@]4(C)CC[C@H]5C(C)(C)C(=O)C(C#N)=C[C@]5(C)C4=CC(=O)[C@]3(O)[C@@H]2C1 (stereo partly drawn) [Example 19, (2S,4aS,6aS,6bR,8aR,12aS,14aS,14bR)-11-cyano-14a-hydroxy-N-(2-hydroxypropyl)-2,4a,6a,6b,9,9,12a-heptamethyl-10,14-dioxo-1,2,3,4,4a,5,6,6a,6b,7,8,8a,9,10,12a,14,14a,14b-octadecahydropicene-2-carboxamide] was tested, and the IC50 was 0.0679 µM.
Compound CC1(C)C(=O)C(C#N)=C[C@]2(C)C3=CC(=O)[C@]4(O)[C@@H]5C[C@@](C)(C(=O)NCCN6CCOCC6)CC[C@]5(C)CC[C@@]4(C)[C@]3(C)CC[C@@H]12 [Example 10, (2S,4aS,6aS,6bR,8aR,12aS,14aS,14bR)-11-cyano-14a-hydroxy-2,4a,6a,6b,9,9,12a-heptamethyl-N-[2-(morpholin-4-yl)ethyl]-10,14-dioxo-1,2,3,4,4a,5,6,6a,6b,7,8,8a,9,10,12a,14,14a,14b-octadecahydropicene-2-carboxamide] has an IC50 of 0.0239 µM.
CC(C)(C)CNC(=O)[C@@]1(C)CC[C@]2(C)CC[C@@]3(C)[C@]4(C)CC[C@H]5C(C)(C)C(=O)C(C#N)=C[C@]5(C)C4=CC(=O)[C@]3(O)[C@@H]2C1 [Example 7, (2S,4aS,6aS,6bR,8aR,12aS,14aS,14bR)-11-cyano-N-(2,2-dimethylpropyl)-14a-hydroxy-2,4a,6a,6b,9,9,12a-heptamethyl-10,14-dioxo-1,2,3,4,4a,5,6,6a,6b,7,8,8a,9,10,12a,14,14a,14b-octadecahydropicene-2-carboxamide] gave an IC50 of 0.0224 µM.
CC1(C)C(=O)C(C#N)=C[C@]2(C)C3=CC(=O)[C@]4(O)[C@@H]5C[C@@](C)(C(=O)NCc6ccno6)CC[C@]5(C)CC[C@@]4(C)[C@]3(C)CC[C@@H]12 [Example 30, (2S,4aS,6aS,6bR,8aR,12aS,14aS,14bR)-11-cyano-14a-hydroxy-2,4a,6a,6b,9,9,12a-heptamethyl-N-(1,2-oxazol-5-ylmethyl)-10,14-dioxo-1,2,3,4,4a,5,6,6a,6b,7,8,8a,9,10,12a,14,14a,14b-octadecahydropicene-2-carboxamide] gave an IC50 of 0.0124 µM.
With COCC(COC)NC(=O)[C@@]1(C)CC[C@]2(C)CC[C@@]3(C)[C@]4(C)CC[C@H]5C(C)(C)C(=O)C(C#N)=C[C@]5(C)C4=CC(=O)[C@]3(O)[C@@H]2C1 [Example 23, (2S,4aS,6aS,6bR,8aR,12aS,14aS,14bR)-11-cyano-N-(1,3-dimethoxypropan-2-yl)-14a-hydroxy-2,4a,6a,6b,9,9,12a-heptamethyl-10,14-dioxo-1,2,3,4,4a,5,6,6a,6b,7,8,8a,9,10,12a,14,14a,14b-octadecahydropicene-2-carboxamide] the IC50 was 0.0108 µM.
For CC1(C)C(=O)C(C#N)=C[C@]2(C)C3=CC(=O)[C@@H]4[C@@H]5C[C@@](C)(C(=O)NC6CCCCC6)CC[C@]5(C)CC[C@@]4(C)[C@]3(C)CC[C@@H]12 [Example 36, (2S,4aS,6aR,6bS,8aR,12aS,14aR,14bS)-11-cyano-N-cyclohexyl-2,4a,6a,6b,9,9,12a-heptamethyl-10,14-dioxo-1,2,3,4,4a,5,6,6a,6b,7,8,8a,9,10,12a,14,14a,14b-octadecahydropicene-2-carboxamide], the IC50 was 0.142 µM.
Work on CC1(C)C(=O)C(C#N)=C[C@]2(C)C3=CC(=O)[C@]4(O)[C@@H]5C[C@@](C)(C(=O)NCc6ccco6)CC[C@]5(C)CC[C@@]4(C)[C@]3(C)CC[C@@H]12 [Example 26, (2S,4aS,6aS,6bR,8aR,12aS,14aS,14bR)-11-cyano-N-(2-furylmethyl)-14a-hydroxy-2,4a,6a,6b,9,9,12a-heptamethyl-10,14-dioxo-1,2,3,4,4a,5,6,6a,6b,7,8,8a,9,10,12a,14,14a,14b-octadecahydropicene-2-carboxamide] yielded an IC50 of 0.0102 µM.
CC(C)CNC(=O)[C@@]1(C)CC[C@]2(C)CC[C@@]3(C)[C@]4(C)CC[C@H]5C(C)(C)C(=O)C(C#N)=C[C@]5(C)C4=CC(=O)[C@]3(O)[C@@H]2C1 [Example 32, (2S,4aS,6aS,6bR,8aR,12aS,14aS,14bR)-11-cyano-14a-hydroxy-N-isobutyl-2,4a,6a,6b,9,9,12a-heptamethyl-10,14-dioxo-1,2,3,4,4a,5,6,6a,6b,7,8,8a,9,10,12a,14,14a,14b-octadecahydropicene-2-carboxamide] showed an IC50 of 0.0088 µM.
CC1(C)C(=O)C(C#N)=C[C@]2(C)C3=CC(=O)[C@@H]4[C@@H]5C[C@@](C)(C(=O)NCc6ccco6)CC[C@]5(C)CC[C@@]4(C)[C@]3(C)CC[C@@H]12 [Example 35, (2S,4aS,6aR,6bS,8aR,12aS,14aR,14bS)-11-cyano-N-(2-furylmethyl)-2,4a,6a,6b,9,9,12a-heptamethyl-10,14-dioxo-1,2,3,4,4a,5,6,6a,6b,7,8,8a,9,10,12a,14,14a,14b-octadecahydropicene-2-carboxamide] showed an IC50 of 0.0138 µM.
CC1(C)C(=O)C(C#N)=C[C@]2(C)C3=CC(=O)[C@]4(O)[C@@H]5C[C@@](C)(C(=O)n6ccnc6)CC[C@]5(C)CC[C@@]4(C)[C@]3(C)CC[C@@H]12 [Example 15, (4aR,6aR,6bS,8aS,11S,12aR,12bS,14bS)-12b-hydroxy-11-(1H-imidazol-1-ylcarbonyl)-4,4,6a,6b,8a,11,14b-heptamethyl-3,13-dioxo-3,4,4a,5,6,6a,6b,7,8,8a,9,10,11,12,12a,12b,13,14b-octadecahydropicene-2-carbonitrile] gave an IC50 of 0.269 µM.
CCCNC(=O)[C@@]1(C)CC[C@]2(C)CC[C@@]3(C)[C@]4(C)CC[C@H]5C(C)(C)C(=O)C(C#N)=C[C@]5(C)C4=CC(=O)[C@]3(O)[C@@H]2C1 [Example 25, (2S,4aS,6aS,6bR,8aR,12aS,14aS,14bR)-11-cyano-14a-hydroxy-2,4a,6a,6b,9,9,12a-heptamethyl-10,14-dioxo-N-propyl-1,2,3,4,4a,5,6,6a,6b,7,8,8a,9,10,12a,14,14a,14b-octadecahydropicene-2-carboxamide] showed an IC50 of 0.0078 µM.
COCCNC(=O)[C@@]1(C)CC[C@]2(C)CC[C@@]3(C)[C@]4(C)CC[C@H]5C(C)(C)C(=O)C(C#N)=C[C@]5(C)C4=CC(=O)[C@]3(O)[C@@H]2C1 [Example 16, (2S,4aS,6aS,6bR,8aR,12aS,14aS,14bR)-11-cyano-14a-hydroxy-N-(2-methoxyethyl)-2,4a,6a,6b,9,9,12a-heptamethyl-10,14-dioxo-1,2,3,4,4a,5,6,6a,6b,7,8,8a,9,10,12a,14,14a,14b-octadecahydropicene-2-carboxamide] showed an IC50 of 0.0086 µM.
CC1(C)C(=O)C(C#N)=C[C@]2(C)C3=CC(=O)[C@]4(O)[C@@H]5C[C@@](C)(C(=O)NC6CCCCC6)CC[C@]5(C)CC[C@@]4(C)[C@]3(C)CC[C@@H]12 [Example 21, (2S,4aS,6aS,6bR,8aR,12aS,14aS,14bR)-11-cyano-N-cyclohexyl-14a-hydroxy-2,4a,6a,6b,9,9,12a-heptamethyl-10,14-dioxo-1,2,3,4,4a,5,6,6a,6b,7,8,8a,9,10,12a,14,14a,14b-octadecahydropicene-2-carboxamide] gave an IC50 of 0.0097 µM.
For Cn1ccc(CNC(=O)[C@@]2(C)CC[C@]3(C)CC[C@@]4(C)[C@]5(C)CC[C@H]6C(C)(C)C(=O)C(C#N)=C[C@]6(C)C5=CC(=O)[C@]4(O)[C@@H]3C2)n1 [Example 12, (2S,4aS,6aS,6bR,8aR,12aS,14aS,14bR)-11-cyano-14a-hydroxy-2,4a,6a,6b,9,9,12a-heptamethyl-N-[(1-methyl-1H-pyrazol-3-yl)methyl]-10,14-dioxo-1,2,3,4,4a,5,6,6a,6b,7,8,8a,9,10,12a,14,14a,14b-octadecahydropicene-2-carboxamide], the IC50 was 0.0141 µM.
Compound CC1(C)C(=O)C(C#N)=C[C@]2(C)C3=CC(=O)[C@]4(O)[C@@H]5C[C@@](C)(C(=O)NC6CCOCC6)CC[C@]5(C)CC[C@@]4(C)[C@]3(C)CC[C@@H]12 [Example 18, (2S,4aS,6aS,6bR,8aR,12aS,14aS,14bR)-11-cyano-14a-hydroxy-2,4a,6a,6b,9,9,12a-heptamethyl-10,14-dioxo-N-(tetrahydro-2H-pyran-4-yl)-1,2,3,4,4a,5,6,6a,6b,7,8,8a,9,10,12a,14,14a,14b-octadecahydropicene-2-carboxamide] has an IC50 of 0.0171 µM.

Reference: patent US20140073700A1, “[…] ACID DERIVATIVES AND METHODS OF USE THEREOF” (AbbVie Inc., priority 2012, published 2014)
